Structures can show the parent of a compound that is named as a salt. Where two headings read alike, the source gives them in different places.
Columns and labels:
[1] = tested on: A549 non-small-cell lung cancer cells; assay: Cytotoxicity by lactate dehydrogenase (LDH) release in A549 cells; format: cell-based, human; conditions: A549, 3 h treatment; lowest dose tested for which a toxicity greater than 20% was measured
Description: The effect of the compounds on the metabolism of a non-small-cell lung cancer cell line (A549) was tested using the Seahorse technology (XFe96, Agilent) and the cell death was evaluated by measuring the release of lactate dehydrogenase (LDH, Promega). The cells seeded into 96-well microplates (20 000 cells/well) were treated with the compounds as a dose response (0.03; 0.1; 0.3; 1; 3; 10 µM) for 3 h in serum-free DMEM medium and then mitochondrial respiration (OXPHOS) and glycolysis were measured in real time. At the end of the experiment, the culture supernatant was removed in order to analyze the cell death, and the number of cells was determined by counting, after labelling the cells with DAPI, using a fluorescence microscope (Zeiss). The number of cells per well at the end of the experiment was then used to normalize the results obtained by Seahorse.
The compound concentration indicated in the “toxicity” column represents the lowest dose tested for which a toxicity greater than 20% was measured.

[2] = molecular target: T1, AIF/CHCHD4 (Homo sapiens, UniProt O95831); assay: AlphaScreen (ALPHA) assay of the AIF103-613/CHCHD4 interaction; format: binding
T1 construct: The AIF103-613 protein (AIF protein fragment 103-613) and CHCHD4 protein were produced in BL21 + DE3 bacteria; made in house; host or cells: E. coli BL21 + DE3 (RIPL)
T1 sequence (O95831 103-613 limits assumed): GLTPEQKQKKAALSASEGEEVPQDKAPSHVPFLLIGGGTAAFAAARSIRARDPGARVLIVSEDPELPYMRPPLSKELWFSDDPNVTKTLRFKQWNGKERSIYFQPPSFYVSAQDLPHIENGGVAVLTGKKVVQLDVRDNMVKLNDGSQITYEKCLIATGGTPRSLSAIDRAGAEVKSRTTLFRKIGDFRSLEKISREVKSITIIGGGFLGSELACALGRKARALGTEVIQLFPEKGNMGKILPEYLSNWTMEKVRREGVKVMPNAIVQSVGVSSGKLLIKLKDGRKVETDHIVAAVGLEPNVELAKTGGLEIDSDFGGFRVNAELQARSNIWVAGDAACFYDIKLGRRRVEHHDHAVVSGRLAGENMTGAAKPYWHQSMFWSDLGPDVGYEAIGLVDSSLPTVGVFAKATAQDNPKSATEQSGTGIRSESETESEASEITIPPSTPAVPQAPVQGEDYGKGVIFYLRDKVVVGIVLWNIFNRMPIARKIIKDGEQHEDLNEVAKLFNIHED
Text: This method comprises the use: • of the AIF103-613 and CHCHD4 proteins previously produced; • of an AlphaScreen® kit (PerkinElmer) comprising donor beads and acceptor beads capable of conjugating to the AIF and CHCHD4 proteins; • of a positive control: the N27 peptide (corresponding to the 27 amino acids of the N-ter end of the CHCHD4 protein, as described in Hangen et al., 2015); • of a negative control: 0.1% bovine serum albumin (BSA) solution in phosphate buffered saline (PBS); • of a library of compounds to be tested: the Prestwick chemical compound library (Prestwick Chemical Library®) .
The ALPHA assay was first of all carried out at high throughput, using 384-well white microplates (Greiner, reference 781075), using 25 µl of total volume per well. The proteins, the positive control and the beads were diluted in a 0.1% BSA/PBS solution. All the distributions were carried out with an electronic multipipet, then the plates were centrifuged (200 g, 1 min). The plates were hermetically closed and incubated in the dark in a room at 23° C.
A library of 1280 small molecules, supplied by Prestwick Chemicals (Prestwick Chemical Library®) was screened. This library comprises compounds with various chemical and pharmacological properties, which are already approved by the health authorities, such as the FDA (Food and Drug Administration) or the EMEA (European Medicines Evaluation Agency). Each compound of the library is diluted in a 0.1% DMSO solution and used at a concentration of 10 µM. First of all, 5 µl of compound at […], of N27 at 3 µM (positive control) or of 0.1% BSA/PBS (negative control) were added to the wells. Secondly, 5 µl of AIF103-613 proteins were incubated with the compounds for 20 min before the addition of 5 µl of CHCHD4 for 2 h. Thirdly, 10 µl of a mixture of donor beads and acceptor beads at […] were incubated for 3 h. The analysis of the results was carried out by means of an EnSpire® multimode plate reader (PerkinElmer).
For each 384-well plate, 16 wells correspond to the positive control and 16 wells correspond to the negative control. The positive control corresponds to the measurement of the interaction of the AIF103-613 and CHCHD4 proteins in the presence of the N27 peptide (equivalent to the minimal signal). The negative control corresponds to the measurement of the interaction of the AIF103-613 and CHCHD4 proteins in the presence of the buffer (0.1% BSA/PBS) (equivalent to the maximum signal).
Following the high-throughput screening, the compounds are selected if the signal obtained in the presence of the compound is less than the following threshold TH:
For each compound previously selected, the ALPHA assay is repeated manually using another batch of powder of the compounds.
Each compound is tested at 10 µM and 30 µM due to the Hook effect particular to the ALPHAscreen technology and in order to select the compounds giving a signal located in the ascending part of the Hook bell and therefore active at low dose in a drug development perspective.
The compound is selected if: • the signal obtained in the presence of the compound is less than the threshold TH as described above; and • the signal obtained at 30 µM is less than the signal obtained at 10 µM.
In addition, for each compound thus selected, the dose-effect relationship of the compound is determined. This makes it possible to determine the median inhibitory concentration (IC50) of said compound.

[3] = molecular target: T2, AIF103-613/CHCHD4 (Homo sapiens, UniProt O95831); assay: Surface plasmon resonance (SPR, Biacore) assay of the AIF/CHCHD4 interaction; format: binding; conditions: compound preincubated 20 min with AIF, injected onto immobilized CHCHD4; criterion at least 50% of the inhibition obtained with N27 peptide
T2 construct: The AIF103-613 protein (AIF protein fragment 103-613) and CHCHD4 protein were produced in BL21 + DE3 bacteria; made in house; host or cells: E. coli BL21 + DE3 (RIPL)
T2 sequence (O95831 103-613 limits assumed): as above
Description: FIG. 3: SPR analysis of the compounds identified by Alphascreen. (A) SPR validation of thioridazine and of mitoxantrone, by means of the […], as inhibitors of the AIF103-613/CHCHD4 interaction. The compounds at 10 µM were incubated for 20 min with AIF in DPBS at pH 7.4 at ambient temperature. Then, the mixture was then injected for 3 minutes at a rate of 30 µl per minute onto the CHCHD4 protein. The N27 peptide at 3 µM was used as a […]. (B) Surface plasmon resonance (SPR) sensorgrams, making it possible to follow the binding of AIF103-613 to CHCHD4 in the presence of thioridazine hydrochloride or of mitoxantrone dihydrochloride. The thioridazine hydrochloride and the mitoxantrone dihydrochloride were tested at increasing concentrations ranging from 0.5 µM to 50 µM.
Some of the compounds identified by means of the Alpha assay as described above were tested by surface plasmon resonance (Biacore™ T100, GE Healthcare Life Sciences). The CHCHD4 protein was immobilized covalently on a dextran matrix comprising COOH functional carboxyl groups (Series S CM5® sensor chip, GE Healthcare Life Sciences, 29149603). […]
The sensorgrams were analyzed using the BIAevaluation software (Version 2.0.4).
The inhibition of the interaction of the AIF and CHCHD4 proteins by thioridazine and mitoxantrone was analyzed by means of a surface plasmon resonance assay (cf. FIG. 3). […]

[4] = molecular target: T3, AIF103-613 protein (AIF protein fragment 103-613) (human, UniProt O95831 103-613); assay: AlphaScreen cross-titration
T3 construct: also called apoptosis-inducing factor
T3 sequence (O95831 103-613): as the sequence (O95831 103-613 limits assumed) above

[5] = obtained manually using the Alphascreen assay, read-out: IC50 AIF/CHCHD4

Molecule | IC50 [2, 5] | binding result [4] | Cellular toxicity [1] | IC50 [2] | inhibition of the interaction between the AIF and CHCHD4 proteins (SPR) [3]
COC(=O)C1=C(C)NC(C)=C(C(=O)OC2CCCN(Cc3ccccc3)C2)[C@@H]1c1cccc([N+](=O)[O-])c1 (stereo partly shown) [Benidipine hydrochloride] | 8 µM | – | 10 µM | – | –
COc1cc(-c2ccc(N=Nc3ccc4c(S(=O)(=O)O)cc(S(=O)(=O)O)c(N)c4c3O)c(OC)c2)ccc1N=Nc1ccc2c(S(=O)(=O)O)cc(S(=O)(=O)O)c(N)c2c1O [Chicago sky blue 6B] | 1.44 µM | – | – | – | –
O=C1OC2(c3cc(Br)c(O)cc3Oc3c2cc(Br)c(O)[c]3[Hg][OH])c2ccccc21 (stereo not shown) [Merbromine] | – | – | – | 0.169 µM | –
NCCNCCNCCNCCN [Tetraethylenepentamine pentahydrochloride] | 9 µM | – | 10 µM | – | –
Bromocriptine mesylate | 4.57 µM | – | 3 µM | – | –
Mitoxantrone dihydrochloride | 1.27 µM | – | 3 µM | – | capable of inhibiting the interaction

Now from value to molecule, other results behind:

IC50 [2, 5] | binding result [4] | Molecule | Cellular toxicity [1] | IC50 [2] | inhibition of the interaction between the AIF and CHCHD4 proteins (SPR) [3]
0.415 µM | – | CCN(CC)C(=S)SSC(=S)N(CC)CC [Disulfiram] | 3 µM | – | –
4.8 µM | – | CO[C@H]1/C=C/O[C@@]2(C)Oc3c(C)c(O)c4c(O)c(c(/C=N/N5CCN(C6CCCC6)CC5)c(O)c4c3C2=O)NC(=O)/C(C)=C\C=C\[C@H](C)[C@H](O)[C@@H](C)[C@@H](O)[C@@H](C)[C@H](OC(C)=O)[C@@H]1C [Rifapentine] | 10 µM | – | –
10.6 µM | – | CCSc1ccc2c(c1)N(CCCN1CCN(C)CC1)c1ccccc1S2.O=C(O)CC(O)C(=O)O.O=C(O)CC(O)C(=O)O [Thiethylperazine dimalate] | 10 µM | – | –
24 µM | – | CSc1ccc2c(c1)N(CCC1CCCCN1C)c1ccccc1S2 (stereo not shown) [Thioridazine hydrochloride] | 1 µM | – | capable of inhibiting the interaction
12 µM | – | Nisoldipine | – | – | –
– | binds | CHCHD4 protein (coiled-coil-helix-coiled-coil-helix domain containing 4) (other, In SPR the protein was coupled covalently to a CM5 chip; also called MIA40; mitochondrial intermembrane space import and assembly protein 40) MSYCRQEGKDRIIFVTKEDHETPSSAELVADDPNDPYEEHGLILPNGNINWNCPCLGGMASGPCGEQFKSAFSCFHYSTEEIKGSDCVDQFRAMQECMQKYPDLYPQEDEDEEEEREKKPAEQAEETAPIEATATKEEEGSS | – | – | –

Source: US20230221321A1, “METHOD FOR IDENTIFYING COMPOUNDS USEFUL FOR THE TREATMENT OF CANCER” (UNIVERSITÉ PARIS-SACLAY, priority 2020, published 2023)
